pIC50: −log10 of the molar value.
Columns and labels:
DLD1-WRN-KO cells = assay: Proliferation assay DLD1-WRN-KO (CellTiterGlo, 96 hours; off-target effects); details: Homo sapiens, read-out: Proliferation Assay DLD1-WRN-KO (GI50)
SW48 cells = assay: Proliferation assay SW48 (CellTiterGlo, 96 hours); details: Homo sapiens, SW48, read-out: Proliferation Assay SW48 (GI50)
Description: The WRN-knockdown insensitive colon carcinoma cell line DLD-1 (RRID: CVCL_0248) was obtained from the Korean Cell Line Bank (KCLB), and used to generate a derivative in which the endogenous WRN gene copies were knocked out by CRISPR-mediated editing using standard CRISPR methods. The resulting cell line, DLD1-WRN—KO, was used to assess potential off-target compound effects.
All cells were maintained at 37° C. in a humidified 5% CO2 incubator.
For data analysis, the assay background signal that was determined in wells containing medium, but no cells, was subtracted from all other data points prior to further calculations. The extent of growth inhibition and potential cell kill was assessed by comparing the ATP levels (measured using CellTiterGlo, Promega) in compound-treated cells with those present at the time of compound addition. […] 100%, 0% and −100% signify absence of growth inhibition, growth stasis, and complete cell kill, respectively. Compound concentrations leading to half-maximal growth inhibition (G150) and residual cell viability at the highest tested compound concentration (Data (cmax), expressed in percent) were routinely calculated. Data analysis can also be carried out using commercially available software designed to derive IC50 values using 4-parameter fits (e.g. GraphPad Prism, XL fit). The reported GI50 values are the geometrical means of at least 2 independent replicates.

WRN helicase = WRN helicase (Homo sapiens (Human), UniProt Q14191); assay: In vitro enzymatic activity assay on WRN helicase (DNA dependent ATPase assay, ADP-Glo); format: biochemical; details: geometric means of at least 2 determinations; read-out: WRN ATPase Activity (IC50)
Outline: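 The WRN helicase core (aa N517-P1238), 10 nM, hydrolysed 300 µM ATP in the presence of 0.2 nM FLAP26 DNA (Tris pH 7.5, 2 mM MgCl2, 50 mM NaCl) for 30 min at room temperature. ADP formed was quantified by ADP-Glo luminescence.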

Sequence of WRN helicase (Q14191 517-1238): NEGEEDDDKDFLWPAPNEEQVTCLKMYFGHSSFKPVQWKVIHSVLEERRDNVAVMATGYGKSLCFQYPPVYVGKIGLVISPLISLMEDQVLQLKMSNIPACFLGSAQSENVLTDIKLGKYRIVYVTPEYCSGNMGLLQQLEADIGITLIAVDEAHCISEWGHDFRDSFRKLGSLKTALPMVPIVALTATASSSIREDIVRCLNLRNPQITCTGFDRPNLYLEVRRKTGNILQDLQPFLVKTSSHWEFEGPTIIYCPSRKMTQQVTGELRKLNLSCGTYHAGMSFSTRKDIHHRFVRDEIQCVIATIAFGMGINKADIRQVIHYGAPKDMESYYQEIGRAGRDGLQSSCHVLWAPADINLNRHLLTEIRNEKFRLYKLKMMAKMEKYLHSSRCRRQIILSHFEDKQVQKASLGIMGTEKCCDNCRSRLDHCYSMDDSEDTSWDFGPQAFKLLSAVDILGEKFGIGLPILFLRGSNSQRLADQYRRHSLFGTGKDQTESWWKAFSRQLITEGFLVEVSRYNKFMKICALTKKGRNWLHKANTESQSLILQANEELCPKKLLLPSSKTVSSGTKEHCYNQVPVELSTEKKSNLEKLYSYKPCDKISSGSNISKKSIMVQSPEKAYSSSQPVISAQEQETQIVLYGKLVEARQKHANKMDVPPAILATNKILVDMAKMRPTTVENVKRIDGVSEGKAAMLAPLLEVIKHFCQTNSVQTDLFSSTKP

Row | Structure (SMILES) | GI50 (DLD1-WRN-KO cells) | GI50 (SW48 cells) | pIC50 (WRN helicase)
1 | CCc1c(N2CCN(C(=O)c3nccc(OC(F)(F)F)c3O)CC2)c(=O)n2nc(C3=CCOCC3)nc2n1CC(=O)Nc1ccc(C(F)(F)F)cc1C [Example 67, 2-(2-(3,6-dihydro-2H-pyran-4-yl)-5-ethyl-6-(4-(3-hydroxy-4-(trifluoromethoxy)picolinoyl)piperazin-1-yl)-7-oxo-[1,2,4]triazolo[1,5-a]pyrimidin-4(7H)-yl)-N-(2-methyl-4-(trifluoromethyl)phenyl)acetamide] | > 10000 nM | 190 nM | 6.82
2 | Cc1c(C2CCN(C(=O)c3ncccc3O)CC2)c(=O)n2nc(C3=CCOCC3)nc2n1CC(=O)Nc1ccc(C(F)(F)F)cc1 [Example 136, 2-(2-(3,6-dihydro-2H-pyran-4-yl)-6-(1-(3-hydroxypicolinoyl)piperidin-4-yl)-5-methyl-7-oxo-[1,2,4]triazolo[1,5-a]pyrimidin-4(7H)-yl)-N-(4-(trifluoromethyl)phenyl)acetamide] | > 10000 nM | 650 nM | 7.10
3 | CCc1c(N2CCN(C(=O)c3ncccc3O)CC2)c(=O)n2nc(N3CCCC3)nc2n1CC(=O)Nc1ccc(C(F)(F)F)cc1C [Example 17, 2-(5-ethyl-6-(4-(3-hydroxypicolinoyl)piperazin-1-yl)-7-oxo-2-(pyrrolidin-1-yl)-[1,2,4]triazolo[1,5-a]pyrimidin-4(7H)-yl)-N-(2-methyl-4-(trifluoromethyl)phenyl)acetamide] | > 10000 nM | 240 nM | 6.85
4 | CCc1c(N2CCN(C(=O)c3ncnc(C)c3O)[C@H]3CC[C@@H]32)c(=O)n2nc(C3=CCOCC3)nc2n1CC(=O)Nc1ccc(C(F)(F)F)cc1Cl [Example 125, N-(2-chloro-4-(trifluoromethyl)phenyl)-2-(2-(3,6-dihydro-2H-pyran-4-yl)-5-ethyl-6-((1 S,6S)-5-(5-hydroxy-6-methylpyrimidine-4-carbonyl)-2,5-diazabicyclo[4.2.0]octan-2-yl)-7-oxo-[1,2,4]triazolo[1,5-a]pyrimidin-4(7H)-yl)acetamide] | > 10000 nM | 10 nM | 7.52
5 | CCc1c(N2CCN(C(=O)c3ncccc3O)CC2)c(=O)n2nc(N3CCN(CC(=O)O)CC3)nc2n1CC(=O)Nc1ccc(C(F)(F)F)cc1Cl [Example 82, 2-(4-(4-(2-((2-chloro-4-(trifluoromethyl)phenyl)amino)-2-oxoethyl)-5-ethyl-6-(4-(3-hydroxypicolinoyl)piperazin-1-yl)-7-oxo-4,7-dihydro-[1,2,4]triazolo[1,5-a]pyrimidin-2-yl)piperazin-1-yl)acetic acid] | > 10000 nM | 7720 nM | 6.55
6 | CCc1c(N2CCN(C(=O)c3ncnc(C)c3O)CC2)c(=O)n2nc(C3=CC[C@H](F)CO3)nc2n1CC(=O)Nc1ccc(C(F)(F)F)cc1Cl [Example 127, (S)—N-(2-chloro-4-(trifluoromethyl)phenyl)-2-(5-ethyl-2-(3-fluoro-3,4-dihydro-2H-pyran-6-yl)-6-(4-(5-hydroxy-6-methylpyrimidine-4-carbonyl)piperazin-1-yl)-7-oxo-[1,2,4]triazolo[1,5-a]pyrimidin-4(7H)-yl)acetamide] | > 10000 nM | 90 nM | 7.10
7 | CCc1c(N2CCN(C(=O)c3nccc(Cl)c3O)CC2)c(=O)n2nc(C3=CCOCC3)nc2n1CC(=O)Nc1ccc(C(F)(F)F)cc1C [Example 61, 2-(6-(4-(4-chloro-3-hydroxypicolinoyl)piperazin-1-yl)-2-(3,6-dihydro-2H-pyran-4-yl)-5-ethyl-7-oxo-[1,2,4]triazolo[1,5-a]pyrimidin-4(7H)-yl)-N-(2-methyl-4-(trifluoromethyl)phenyl)acetamide] | > 10000 nM | 50 nM | 7.30

From US11878973B2, “Bicyclic compounds and their uses” (NOVARTIS AG, priority 2021, dated 2024)
